Measured values published in US12378571B2, “Use of glyphosate for disease suppression and yield enhancement in soybean” (Monsanto Technology LLC, priority 2009, dated 2025).

Experiments:
[1] = system: Phakopsora pachyrhizi EPSPS expressed in Escherichia coli strain lacking native EPSPS; assay: Zone of growth inhibition, filter paper disk on plate seeded with E. coli expressing fungal EPSPS; assay type: cell-based
Method: Glyphosate Mode of Action Against Plant Pathogenic Fungi A gene encoding EPSPS was cloned from a representative phytopathogenic fungus, in this case, from Phakopsora pachyrhizi, the causal agent of Asian Soybean Rust (“ASR”), and expressed in an Escherichia coli strain lacking the native bacterial E. coli EPSPS. Thus, EPSPS activity in the recombinant bacterial strain was due to the presence of the fungal EPSPS. Glyphosate was added to a filter paper disk and placed on a culture plate seeded with the recombinant E. coli cells, allowing for detection of a zone of growth inhibition of bacterial cells.

[2] = Mobilization of glyphosate in planta after foliar application; assay type: in vivo
Source text: Mobilization of glyphosate in planta was studied to determine the potential to impact on activity against plant diseases. About 1 day after foliar application of glyphosate about 70% of the applied glyphosate may be found on the leaf surface, where it may directly contact fungal spores or infective structures, inhibiting their growth, and killing them. About 21% of the glyphosate was found localized within the foliage where it can act to inhibit infection locally. About 9% of the applied glyphosate was transported out of the treated leaf and detected systemically (e.g. in stems and roots) at the time of testing (e.g. Feng et al. 2005). The transported fraction of applied glyphosate increases to about 40% over time, further increasing systemic fungicidal activity.

[3] = system: Brown Stem Rot (Phialaphora gregata); assay: Greenhouse studies, Brown Stem Rot, glyphosate timing and rate; assay type: in vivo, soybean; conditions: application 4 days before infection, about 0.84-2.5 kg ae/ha
Method: (§1) Greenhouse studies were performed to determine the effect of glyphosate timing and rate of application in preventing or suppressing the development of BSR in soybean plants. […] Field trials were also performed. Asgrow cv. 2107 soybean plants were planted and maintained weed free with pre-emergence herbicides at recommended rates, followed by hand weeding as necessary.

[4] = system: Brown Stem Rot (Phialaphora gregata); assay: Field trials, Brown Stem Rot, glyphosate (Example 4, Table 1); assay type: in vivo, soybean
Method: as §1

[5] = system: Diaporthe phaseolorum; assay: Greenhouse studies, Stem Canker of soybean, glyphosate after inoculation; assay type: in vivo; conditions: 0.84-2.52 kg ae/ha following inoculation
Method: Stem Canker of soybean (STC) is caused by Diaporthe phaseolorum. Greenhouse studies were performed to determine the efficacy of timing of glyphosate application (e.g. 0.84-2.52 kg ae/ha) following inoculation with the pathogen.

[6] = system: Brown Stem Rot of soybean; assay: Field studies, Brown Stem Rot: Roundup WeatherMAX, picoxystrobin, tank mix (Rup 1X = 0.84 kg ae/ha; picoxystrobin 0.125 kg ai/ha); assay type: in vivo; conditions: for BSR Foliar Symptoms (0-11 HB scale): picoxystrobin 1X at R2; for Calculated Values (% of control) Foliar Symptoms: treatment 9 (picoxystrobin 1X at R2)
[7] = about 1 day after foliar application

| Structure (SMILES) | zone of inhibition ([1]; 5 mg of glyphosate on filter paper disk) | zone of growth inhibition ([1]; 20 mg of glyphosate on filter paper disk) | applied glyphosate found on the leaf surface [2, 7] | glyphosate localized within the foliage [2, 7] | applied glyphosate transported out of the treated leaf and detected systemically (stems and roots) ([2]; at the time of testing, about 1 day after foliar application) | transported fraction of applied glyphosate ([2]; over time) | foliar incidence of BSR [3] | suppression of BSR, as measured by foliar symptom severity ([4]; glyphosate applied at V3- R2 growth stages) | yield relative to untreated controls ([4]; treated soybean test plots) | prophylaxis of Soybean Stem Canker [5] | BSR Foliar Symptoms (0-11 HB scale) ([6]; 7-Sep) | Calculated Values (% of control) Foliar Symptoms ([6]; 7-Sep) | BSR Foliar Symptoms (0-11 HB scale) ([6]; 14-Sep) | Calculated Values (% of control) Foliar Symptoms ([6]; 14-Sep) | BSR Foliar Symptoms (0-11 HB scale) ([6]; 31-Aug) | Calculated Values (% of control) Foliar Symptoms ([6]; 31-Aug) |
| --- | --- | --- | --- | --- | --- | --- | --- | --- | --- | --- | --- | --- | --- | --- | --- | --- |
| O=C(O)CNCP(=O)(O)O [glyphosate, N-phosphonomethylglycine] | about 24 mm | about 38 mm | about 70% | About 21% | About 9% | about 40% | reduced the level of foliar incidence of the disease | suppression of BSR (reduced stem rot severity) | Increased yield | Prophylactic results, even 7 or more days post-inoculation, were seen | – | – | – | – | – | – |
| CO/C=C(/C(=O)OC)c1ccccc1COc1cccc(C(F)(F)F)n1 [picoxystrobin] | – | – | – | – | – | – | – | – | – | – | 3.6 0-11 HB scale | 72.0 % of control | 6.8 0-11 HB scale | 113.3 % of control | 3.0 0-11 HB scale | 93.8 % of control |
